Source: ChEMBL document CHEMBL1201862, “PubChem BioAssay data set” (2004)
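Five concentrations, 48 hours, 96-well plates. Here, GI50 denotes the concentration required for 50% inhibition of growth.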 Active and inactive are the calls of the source. Rule as the data show it: active = GI50 up to about 1.1 µM and inactive = higher.

Tests used:
Test in all cases: inhibition of tumour cell growth, NCI panel, 48 h
OVCAR-3 = test system: OVCAR-3
DMS-273 = test system: DMS-273
TK-10 = test system: TK-10
NCI-H226 = test system: NCI-H226
SK-MEL-5 = test system: SK-MEL-5
UACC-257 = test system: UACC-257
DMS-114 = test system: DMS-114
NCI/ADR-RES = test system: NCI/ADR-RES
SNB-75 = test system: SNB-75
SK-MEL-2 = test system: SK-MEL-2
SK-MEL-28 = test system: SK-MEL-28
SK-OV-3 = test system: SK-OV-3
HCT-116 = test system: HCT-116
EKVX = test system: EKVX
NCI-H460 = test system: NCI-H460
A498 = test system: A498
SW-620 = test system: SW-620
T47D = test system: T47D
DU-145 = test system: DU-145
BT-549 = test system: BT-549

SMILES | GI50 (OVCAR-3) | GI50 (DMS-273) | GI50 (TK-10) | GI50 (NCI-H226) | GI50 (SK-MEL-5) | GI50 (UACC-257) | GI50 (DMS-114) | GI50 (NCI/ADR-RES) | GI50 (SNB-75) | GI50 (SK-MEL-2) | GI50 (SK-MEL-28) | GI50 (SK-OV-3) | GI50 (HCT-116) | GI50 (EKVX) | GI50 (NCI-H460) | GI50 (A498) | GI50 (SW-620) | GI50 (T47D) | GI50 (DU-145) | GI50 (BT-549)
C=CC1(C)CC(=O)C2(O)C(C)(O1)C(OC(C)=O)C(O)C1C(C)(C)CCC(O)C12C (stereo unspecified) | > 150 µM (inactive) | > 139 µM (inactive) | 1.45 µM (inactive) | 3.41 µM (inactive) | 89.3 µM (inactive) | > 150 µM (inactive) | 52.8 µM (inactive) | 70.6 µM (inactive) | 52 µM (inactive) | > 143 µM (inactive) | > 150 µM (inactive) | 29.7 µM (inactive) | 128 µM (inactive) | > 150 µM (inactive) | 89.1 µM (inactive) | > 150 µM (inactive) | > 150 µM (inactive) |  |  | 
C=CC(=O)N1C/C(=C\c2ccccc2)C(=O)/C(=C/c2ccccc2)C1 | 1.48 µM (inactive) | 0.668 µM (active) | 2.88 µM (inactive) | 3.85 µM (inactive) | 1.61 µM (inactive) | 1.92 µM (inactive) | 1.01 µM (active) | 1.93 µM (inactive) | 3.24 µM (inactive) | 2.1 µM (inactive) | 1.82 µM (inactive) | 2.58 µM (inactive) | 0.195 µM (active) | 3.47 µM (inactive) | 1.89 µM (inactive) | 2 µM (inactive) | 0.259 µM (active) | 3.75 µM (inactive) | 5.13 µM (inactive) | 1.71 µM (inactive)
CCCCCCCCCCCCCC(=O)NO | 10.1 µM (inactive) | 14.3 µM (inactive) | 19.9 µM (inactive) | 5.05 µM (inactive) | 9.64 µM (inactive) | 29.2 µM (inactive) | 3.6 µM (inactive) |  | 11.4 µM (inactive) | 23.5 µM (inactive) | 31.6 µM (inactive) | 30.5 µM (inactive) | 8.85 µM (inactive) | 21.4 µM (inactive) | 11.8 µM (inactive) | 23.5 µM (inactive) | 16.3 µM (inactive) |  | 3.35 µM (inactive) | 1.16 µM (inactive)
C=C(C)[C@H]1CC[C@@]2(C)C(C1)[C@H](C)CC[C@@H]2O (stereo partly specified) | > 100 µM (inactive) | > 100 µM (inactive) | > 100 µM (inactive) | > 100 µM (inactive) | > 100 µM (inactive) | > 100 µM (inactive) | > 100 µM (inactive) |  | > 100 µM (inactive) | > 100 µM (inactive) | > 100 µM (inactive) | > 100 µM (inactive) | > 100 µM (inactive) | > 100 µM (inactive) | > 100 µM (inactive) | > 100 µM (inactive) | > 100 µM (inactive) |  |  | 
Nc1ncnc2c1ncn2CC(O)C(=O)O (stereo unspecified) | > 100 µM (inactive) | > 100 µM (inactive) | > 100 µM (inactive) | > 100 µM (inactive) | > 100 µM (inactive) | > 100 µM (inactive) | > 100 µM (inactive) | > 100 µM (inactive) | > 100 µM (inactive) | > 100 µM (inactive) | > 100 µM (inactive) | > 100 µM (inactive) | > 100 µM (inactive) | > 100 µM (inactive) | > 100 µM (inactive) | > 100 µM (inactive) | > 100 µM (inactive) | > 100 µM (inactive) | > 100 µM (inactive) | > 100 µM (inactive)
C=CCNC1=NC(=O)C(CC(=O)Nc2ccc([N+](=O)[O-])cc2[N+](=O)[O-])S1 (stereo unspecified) | > 100 µM (inactive) | > 100 µM (inactive) | 98.6 µM (inactive) | > 100 µM (inactive) | > 100 µM (inactive) | > 100 µM (inactive) | 66.5 µM (inactive) |  | 66.5 µM (inactive) | > 100 µM (inactive) | > 100 µM (inactive) | > 100 µM (inactive) | > 100 µM (inactive) | > 100 µM (inactive) | > 100 µM (inactive) | > 100 µM (inactive) | > 100 µM (inactive) |  |  | 
Cc1ccccc1-c1c(N)nc(N)nc1C(=O)Nc1nccs1 | > 100 µM (inactive) | > 100 µM (inactive) | > 100 µM (inactive) | > 100 µM (inactive) | > 100 µM (inactive) | > 100 µM (inactive) | > 100 µM (inactive) |  | > 100 µM (inactive) | > 100 µM (inactive) | > 100 µM (inactive) | > 100 µM (inactive) | > 100 µM (inactive) | > 100 µM (inactive) | > 100 µM (inactive) | > 100 µM (inactive) | > 100 µM (inactive) |  |  | 
CCCCCCCCCCCCCC(=O)O[C@H]1CC[C@H](NC(=O)[C@H](OC)[C@H](O)[C@@H](O)[C@H](O)/C=C/C(C)C)C(=O)NC1 [BENGAMIDE A] | 0.0147 µM (active) | 0.00512 µM (active) | 0.0726 µM (active) | 0.145 µM (active) | 0.0105 µM (active) | 0.0205 µM (active) | 0.00512 µM (active) | 5.18 µM (inactive) | 0.0353 µM (active) | 0.251 µM (active) | < 0.0103 µM (active) | 0.149 µM (active) | 0.00512 µM (active) | 0.234 µM (active) | 0.00512 µM (active) | 0.0389 µM (active) | 0.00512 µM (active) | 0.01 µM (active) | 0.731 µM (active) | 0.953 µM (active)
CC12CCC(CC1)C(C)(C)O2 [EUCALYPTOL] | 36.1 µM (inactive) | 3.56 µM (inactive) | > 100 µM (inactive) |  | 5.5 µM (inactive) | 16.9 µM (inactive) | 24.4 µM (inactive) | 45.2 µM (inactive) | 39.3 µM (inactive) | 47.3 µM (inactive) | 62.4 µM (inactive) | 57.5 µM (inactive) |  | 38 µM (inactive) |  | 0.923 µM (active) |  |  |  | 
